Assay results taken from article PMC4840323, “Plasiatine, an Unprecedented Indole–Phenylpropanoid Hybrid from Plantago asiatica as a Potent Activator of the Nonreceptor Protein Tyrosine Phosphatase Shp2” (Scientific Reports, 2016).

Molecular target: T1, Shp2 (Src homology 2-containing phosphotyrosine phosphatase 2) (Homo sapiens, UniProt Q06124)
T1 construct: gene PTPN11; GST-PTP fusion proteins of human Shp2 (residues 205–597)
T1 sequence (Q06124 205-593): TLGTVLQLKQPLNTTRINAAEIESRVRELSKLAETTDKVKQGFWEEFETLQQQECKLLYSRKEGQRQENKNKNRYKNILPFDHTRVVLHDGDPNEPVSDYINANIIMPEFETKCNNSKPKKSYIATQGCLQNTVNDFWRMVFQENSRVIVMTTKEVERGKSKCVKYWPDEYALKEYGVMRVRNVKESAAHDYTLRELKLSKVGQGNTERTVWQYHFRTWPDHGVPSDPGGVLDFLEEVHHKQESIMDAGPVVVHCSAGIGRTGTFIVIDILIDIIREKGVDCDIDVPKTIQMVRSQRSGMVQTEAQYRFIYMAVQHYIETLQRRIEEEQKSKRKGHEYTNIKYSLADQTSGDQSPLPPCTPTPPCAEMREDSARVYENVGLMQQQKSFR
Experiment: activation of recombinant GST-Shp2 phosphatase activity, DiFMUP fluorescence assay
Format: biochemical

EC50: 970 nM
SMILES: COc1cc([C@H]2Oc3cc4c(cc3[C@@H]2CO)NC(=O)[C@@]4(O)CC#N)ccc1O [compound 1, plasiatine]
